Experimental data published in US9999220B2, “Method for repelling rodents” (Arkion Life Sciences, LLC, priority 2014, dated 2018).

How the values were obtained:
California voles = assay: Concentration-response repellency experiment, treated whole oats, California voles; format: in vivo, Microtus californicus; conditions: California voles offered oats treated with 0.5-2% anthraquinone (target concentrations), 1-day test
Description: (§1) These values can also be used to form ranges, such as, for example, from about 15% to about 85% repellency, with preferred ranges for particular rodent families ranging from about 20-50%; 25-40%; 40-55%; and 55-85%. The percent repellency is based on the percentage of the treated item which is not consumed by the animal.
(§2) We conducted a concentration-response experiment with an anthraquinone-based repellent (Avipel®, a.i. 50% 9,10-anthraquinone; Arkion Life Sciences, New Castle, Del.) to determine anthraquinone repellency for California (Microtus californicus, N=30 males and females). During a 3-day pre-test, we offered one bowl (untreated whole oats) in individual cages at 08:00 h, daily. […] We randomly assigned repellent treatments among groups. During the 1-day test, we offered one bowl (repellent-treated whole oats) at 08:00 h. Consumption of treated oats was measured (±0.1 g) at 08:00 h on the day subsequent to the test.
We observed 58-84% repellency (FIG. 2) during our concentration-response experiment with California voles offered oats treated with 0.5-2% anthraquinone (target concentrations).

deer mice = assay: Concentration-response repellency experiment, treated whole oats, deer mice; format: in vivo, Peromyscus maniculatus; conditions: deer mice offered oats treated with 0.25-2% anthraquinone (target concentrations), 1-day test
[1] = system: black-tailed prairie dogs; assay: Concentration-response repellency experiment, treated whole corn, black-tailed prairie dogs; format: in vivo, Cynomys ludovicianus; conditions: black-tailed prairie dogs offered corn seeds treated with 0.5-4% anthraquinone (target concentrations), 1-day test
Description: as §1
as §2, with “black-tailed prairie dogs (Cynomys ludovicianus, N=44” for “California (Microtus californicus, N=30”, “females; Werner et al. 2011).” for “females).”, “corn)” for “oats)”, “corn seeds” for “oats”
We observed 24-37% repellency (FIG. 1) during our concentration-response experiment with black-tailed prairie dogs offered corn seeds treated with 0.5-4% anthraquinone (target concentrations; Werner et al. 2011).

Sprague-Dawley rats = assay: 13-week single-choice feeding study in Sprague-Dawley rats (rat repellency example); format: in vivo; conditions: for Body Weight Day 1: Day 1, mean ± SD; for Body Weight Week 3: Week 3, mean ± SD; for Body Weight Week 7: Week 7, mean ± SD; for Body Weight Week 13: Week 13, mean ± SD; for Total Weight Gain % difference from control / Total Weight Gain: over 13 weeks; for Total Weight Gain: mean ± SD
Experimental: Anthraquinone is not a classic toxicant but a feeding study on Sprague-Dawley rats was done to determine effects of long term feeding where there was a single choice offered to rats over a 13 week period.
Anthraquinones was administered to four groups of 10 male and 10 female Sprague-Dawley rats/group at concentrations of 0, 500, 2000, or 7500 ppm (0, 40, 125, or 495 mg/kg/day in males; 0, 44, 150, or 661 mg/kg/day in females) for 4 consecutive weeks. Beginning with Week 5, the 500 ppm diet was reduced to 200 ppm resulting in lowering the doses to 11 and 16 mg/kg/day for males and females, respectively, through the end of the 13-week experimental period.
Significant reduction in feeding with a single choice indicates a non-lethal repellency.

[2] = system: Richardson's ground squirrels; assay: Concentration-response repellency experiment, treated whole oats, Richardson's ground squirrels; format: in vivo, Urocitellus richardsonii; conditions: Richardson's ground squirrels offered oats treated with 0.5-2% anthraquinone (target concentrations), 1-day test
Description: as §1
as §2, with “a.i.50%” for “a.i. 50%”, “Richardson's ground squirrels (Urocitellus richardsonii, N=28” for “California (Microtus californicus, N=30”
We observed 40-56% repellency (FIG. 3) during our concentration-response experiment with Richardson's ground squirrels offered oats treated with 0.5-2% anthraquinone (target concentrations).

[3] = females, 500 ppm diet (200 ppm from Week 5)
[4] = males, 500 ppm diet (200 ppm from Week 5)

O=C1c2ccccc2C(=O)c2ccccc21 [anthraquinone, 9,10-anthraquinone]
repellency (California voles): 58-84% | repellency (deer mice): 19-52% | repellency [1]: 24-37% | repellency observed (lack of weight gain from inhibited feeding) (Sprague-Dawley rats; 500 ppm in diet, single choice, 13 weeks): some repellency was observed | Body Weight Day 1 (Sprague-Dawley rats; [3]): 185 ± 12.2 G | Body Weight Week 3 (Sprague-Dawley rats; [3]): 223 ± 12.4 G | Body Weight Week 7 (Sprague-Dawley rats; [3]): 254 ± 14.2 G | Body Weight Week 13 (Sprague-Dawley rats; [3]): 274 ± 15.0 G | Total Weight Gain % difference from control (Sprague-Dawley rats; [3]): −27% | Total Weight Gain (Sprague-Dawley rats; [3]): 89 ± 10.1 Grams | Body Weight Day 1 (Sprague-Dawley rats; females, 2000 ppm diet): 188 ± 14.6 G | Body Weight Week 3 (Sprague-Dawley rats; females, 2000 ppm diet): 212 ± 14.2 G | Body Weight Week 7 (Sprague-Dawley rats; females, 2000 ppm diet): 238 ± 11.7 G | Body Weight Week 13 (Sprague-Dawley rats; females, 2000 ppm diet): 247 ± 16.3 G | Total Weight Gain % difference from control (Sprague-Dawley rats; females, 2000 ppm diet): −51% | Total Weight Gain (Sprague-Dawley rats; females, 2000 ppm diet): 59 ± 9.2 Grams | Body Weight Day 1 (Sprague-Dawley rats; females, 7500 ppm diet): 189 ± 11.8 G | Body Weight Week 3 (Sprague-Dawley rats; females, 7500 ppm diet): 204 ± 22.0 G | Body Weight Week 7 (Sprague-Dawley rats; females, 7500 ppm diet): 226 ± 26.3 G | Body Weight Week 13 (Sprague-Dawley rats; females, 7500 ppm diet): 217 ± 27.7 G | Total Weight Gain % difference from control (Sprague-Dawley rats; females, 7500 ppm diet): −76% | Total Weight Gain (Sprague-Dawley rats; females, 7500 ppm diet): 29 ± 28.2 Grams | Body Weight Day 1 (Sprague-Dawley rats; [4]): 252 ± 14.5 G | Body Weight Week 3 (Sprague-Dawley rats; [4]): 379 ± 26.4 G | Body Weight Week 7 (Sprague-Dawley rats; [4]): 471 ± 39.4 G | Body Weight Week 13 (Sprague-Dawley rats; [4]): 528 ± 47.4 G | Total Weight Gain % difference from control (Sprague-Dawley rats; [4]): −11% | Total Weight Gain (Sprague-Dawley rats; [4]): 275 ± 38.7 Grams | Body Weight Day 1 (Sprague-Dawley rats; males, 2000 ppm diet): 250 ± 13.5 G | Body Weight Week 3 (Sprague-Dawley rats; males, 2000 ppm diet): 359 ± 23.7 G | Body Weight Week 7 (Sprague-Dawley rats; males, 2000 ppm diet): 443 ± 36.9 G | Body Weight Week 13 (Sprague-Dawley rats; males, 2000 ppm diet): 498 ± 43.0 G | Total Weight Gain % difference from control (Sprague-Dawley rats; males, 2000 ppm diet): −20% | Total Weight Gain (Sprague-Dawley rats; males, 2000 ppm diet): 247 ± 37.1 Grams | Body Weight Day 1 (Sprague-Dawley rats; males, 7500 ppm diet): 250 ± 10.1 G | Body Weight Week 3 (Sprague-Dawley rats; males, 7500 ppm diet): 342 ± 20.2 G | Body Weight Week 7 (Sprague-Dawley rats; males, 7500 ppm diet): 425 ± 28.7 G | Body Weight Week 13 (Sprague-Dawley rats; males, 7500 ppm diet): 470 ± 37.9 G | Total Weight Gain % difference from control (Sprague-Dawley rats; males, 7500 ppm diet): −28% | Total Weight Gain (Sprague-Dawley rats; males, 7500 ppm diet): 221 ± 34.0 Grams | dietary concentration at which effective repellency began (Sprague-Dawley rats; single choice diet, 13 weeks): approximately 2000 ppm | repellency [2]: 40-56%
